Converted amounts (≈) assume the structure as drawn. Where two headings read alike, the source gives them in different places.
Legend:
Mtb strain mc^2-7000 = test: microbe, parasite or virus in culture; assay type: cell-based, Mycobacterium tuberculosis; conditions: 6 days incubation at 37° C., resazurin, read on the 7th day
Mtb AccD6 = Mtb AccD6 (Mycobacterium tuberculosis, UniProt P9WQH5); test: biochemical; assay type: biochemical; conditions: 300 μM malonyl-CoA, inhibitor 10 μM to 2000 μM
[1] = Pharmacokinetic studies in mice, plasma concentration after gavage (LC/MS); conditions: gavage
[2] = Mycobacterium tuberculosis, 144 h, read-out: MIC

Chain of Mtb AccD6 (P9WQH5 whole entry, looked up): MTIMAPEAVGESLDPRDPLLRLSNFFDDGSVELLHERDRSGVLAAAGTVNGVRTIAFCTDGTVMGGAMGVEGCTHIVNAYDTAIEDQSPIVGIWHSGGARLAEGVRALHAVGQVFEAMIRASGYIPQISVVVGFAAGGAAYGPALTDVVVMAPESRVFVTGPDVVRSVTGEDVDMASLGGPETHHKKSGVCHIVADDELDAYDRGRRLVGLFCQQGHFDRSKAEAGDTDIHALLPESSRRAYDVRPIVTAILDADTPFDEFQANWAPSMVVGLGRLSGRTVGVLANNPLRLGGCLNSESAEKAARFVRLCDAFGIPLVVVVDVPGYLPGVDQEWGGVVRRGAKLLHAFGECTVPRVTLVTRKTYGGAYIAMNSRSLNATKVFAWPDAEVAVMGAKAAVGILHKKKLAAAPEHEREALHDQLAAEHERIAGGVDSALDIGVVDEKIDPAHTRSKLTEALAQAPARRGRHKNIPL

## CONC(=O)C(C)c1ccc(Oc2nc3ccc(Cl)cc3s2)cc1 (racemic) [NZ-313, 2-{4-[(6-chloro-1,3-benzothiazol-2-yl)oxy]phenyl}-N-methoxypropanamide]
Human fibroblast
  concentrations at which not toxic, human fibroblast cytotoxicity: ≥ 100 µM
Mtb strain mc^2-7000; [2]
  MIC: 0.38 µM (≈ 0.138 µg/mL)
Mtb AccD6; read-out: IC50
  IC50: 320 nM
[1]; single dose 200 mg/kg, PEG, 90 minutes after gavage
  peak plasma concentration (FIG. 8): 1
[1]; two doses 100 mg/kg 4 hours apart, canola oil, 30 minutes after gavage
  peak plasma concentration (FIG. 7): approximately 0.69 μL/mg
S. cerevisiae
  concentrations at which not toxic, s. cerevisiae cytotoxicity: ≥ 100 µM

## CC(C)NC(=O)Nc1ccc(Oc2nc3ccc(C(F)(F)F)cc3s2)cc1 [NZ-379, 3-(propan-2-yl)-1-(4-{[6-(trifluoromethyl)-1,3-benzothiazol-2-yl]oxy}phenyl)urea]
Human fibroblast
  concentrations at which not toxic, human fibroblast cytotoxicity: ≥ 100 µM
Mtb strain mc^2-7000
  MIC: Not Active
Mtb AccD6
  IC50: Not Active
S. cerevisiae
  concentrations at which not toxic, s. cerevisiae cytotoxicity: ≥ 100 µM

## CC(C)NC(=O)Nc1ccc(Oc2nc3ccc(S(C)(=O)=O)cc3s2)cc1 [NZ-380, 1-{4-[(6-methanesulfonyl-1,3-benzothiazol-2-yl)oxy]phenyl}-3-(propan-2-yl)urea]
Human fibroblast
  concentrations at which not toxic, human fibroblast cytotoxicity: ≥ 100 µM
Mtb strain mc^2-7000; [2]
  MIC: 3.4 µM (≈ 1.38 µg/mL)
Mtb AccD6
  IC50: Not Active
S. cerevisiae
  concentrations at which not toxic, s. cerevisiae cytotoxicity: ≥ 100 µM

## CC(C)NC(=O)Nc1ccc(Oc2nc3ccc(CO)cc3s2)cc1 [NZ-381, 1-(4-{[6-(hydroxymethyl)-1,3-benzothiazol-2-yl]oxy}phenyl)-3-(propan-2-yl)urea]
Human fibroblast
  concentrations at which not toxic, human fibroblast cytotoxicity: ≥ 100 µM
Mtb strain mc^2-7000; [2]
  MIC: 7.3 µM (≈ 2.61 µg/mL)
Mtb AccD6
  IC50: Not Active
S. cerevisiae
  concentrations at which not toxic, s. cerevisiae cytotoxicity: ≥ 100 µM

## CC(C)NC(=O)Nc1ccc(Oc2nc3cc(F)c(F)cc3s2)cc1 [NZ-382, 1-{4-[(5,6-difluoro-1,3-benzothiazol-2-yl)oxy]phenyl}-3-(propan-2-yl)urea]
Human fibroblast
  concentrations at which not toxic, human fibroblast cytotoxicity: ≥ 100 µM
Mtb strain mc^2-7000
  MIC: Not Active
Mtb AccD6; read-out: IC50
  IC50: 270 to 350 nM
S. cerevisiae
  concentrations at which not toxic, s. cerevisiae cytotoxicity: 50 to 100 µM

## CNC(=O)Cc1ccc(Oc2nc3ccc(Cl)cc3s2)cc1 [NZ-383, 2-{4-[(6-chloro-1,3-benzothiazol-2-yl)oxy]phenyl}-N-methylacetamide]
Human fibroblast
  concentrations at which not toxic, human fibroblast cytotoxicity: ≥ 100 µM
Mtb strain mc^2-7000; [2]
  MIC: 3.9 µM (≈ 1.3 µg/mL)
Mtb AccD6; read-out: IC50
  IC50: 800 to 1170 nM
S. cerevisiae
  concentrations at which not toxic, s. cerevisiae cytotoxicity: ≥ 100 µM

## CNC(=O)Cc1ccc(Oc2nc3ccc(F)cc3s2)cc1 [NZ-385, 2-{4-[(6-fluoro-1,3-benzothiazol-2-yl)oxy]phenyl}-N-methylacetamide]
Human fibroblast
  concentrations at which not toxic, human fibroblast cytotoxicity: ≥ 100 µM
Mtb strain mc^2-7000; [2]
  MIC: 3 µM (≈ 0.949 µg/mL)
Mtb AccD6; read-out: IC50
  IC50: 870 nM
S. cerevisiae
  concentrations at which not toxic, s. cerevisiae cytotoxicity: ≥ 100 µM

## CNC(=O)C(C)c1ccc(Oc2nc3ccc(F)cc3s2)cc1 (stereo not shown) [NZ-386, 2-{4-[(6-fluoro-1,3-benzothiazol-2-yl)oxy]phenyl}-N-methylpropanamide]
Human fibroblast
  concentrations at which not toxic, human fibroblast cytotoxicity: ≥ 100 µM
Mtb strain mc^2-7000; [2]
  MIC: 1.1 to 2.1 µM (≈ 0.363 to 0.694 µg/mL)
Mtb AccD6; read-out: IC50
  IC50: 620 nM
S. cerevisiae
  concentrations at which not toxic, s. cerevisiae cytotoxicity: ≥ 100 µM

## CNC(=O)C(C)c1ccc(Oc2nc3cc(F)c(F)cc3s2)cc1 (stereo not shown) [NZ-387, 2-{4-[(5,6-difluoro-1,3-benzothiazol-2-yl)oxy]phenyl}-N-methylpropanamide]
Human fibroblast
  concentrations at which not toxic, human fibroblast cytotoxicity: ≥ 100 µM
Mtb strain mc^2-7000; [2]
  MIC: 2.7 to 8 µM (≈ 0.941 to 2.79 µg/mL)
Mtb AccD6; read-out: IC50
  IC50: 260 nM
S. cerevisiae
  concentrations at which not toxic, s. cerevisiae cytotoxicity: ≥ 100 µM

## CC(C)NC(=O)N(C)c1ccc(Oc2nc3ccc(Cl)cc3s2)cc1 [NZ-388, 1-{4-[(6-chloro-1,3-benzothiazol-2-yl)oxy]phenyl}-1-methyl-3-(propan-2-yl)urea]
Human fibroblast
  concentrations at which not toxic, human fibroblast cytotoxicity: ≥ 100 µM
Mtb strain mc^2-7000; [2]
  MIC: 2.1 µM (≈ 0.789 µg/mL)
Mtb AccD6; read-out: IC50
  IC50: 3000 nM
S. cerevisiae
  concentrations at which not toxic, s. cerevisiae cytotoxicity: ≥ 100 µM

## CNC(=O)Cc1ccc(Oc2nc3ccc(Cl)cc3s2)cc1O [NZ-389, 2-{4-[(6-chloro-1,3-benzothiazol-2-yl)oxy]-2-hydroxyphenyl}-N-methylacetamide]
Human fibroblast
  concentrations at which not toxic, human fibroblast cytotoxicity: ≥ 100 µM
Mtb strain mc^2-7000; [2]
  MIC: 1.2 to 2.2 µM (≈ 0.419 to 0.767 µg/mL)
Mtb AccD6; read-out: IC50
  IC50: 210 nM
S. cerevisiae
  concentrations at which not toxic, s. cerevisiae cytotoxicity: ≥ 100 µM

## CNC(=O)Cc1ccc(O)cc1Oc1nc2ccc(Cl)cc2s1 [NZ-390, 2-{2-[(6-chloro-1,3-benzothiazol-2-yl)oxy]-4-hydroxyphenyl}-N-methylacetamide]
Human fibroblast
  concentrations at which not toxic, human fibroblast cytotoxicity: ≥ 100 µM
Mtb strain mc^2-7000
  MIC: Not Active
Mtb AccD6; read-out: IC50
  IC50: 15400 nM
S. cerevisiae
  concentrations at which not toxic, s. cerevisiae cytotoxicity: ≥ 100 µM

## CC(C)NC(=O)Nc1ccc(Oc2nc3ccc(Cl)cc3s2)c[n+]1[O-] [NZ-391, 1-{5-[(6-chloro-1,3-benzothiazol-2-yl)oxy]-1-oxo-1λ^5-pyridin-2-yl}-3-(propan-2-yl)urea]
Human fibroblast
  concentrations at which not toxic, human fibroblast cytotoxicity: ≥ 100 µM
Mtb strain mc^2-7000
  MIC: Not Active
Mtb AccD6
  IC50: Not Active
S. cerevisiae
  concentrations at which not toxic, s. cerevisiae cytotoxicity: ≥ 100 µM

## CNC(=O)Cc1ccc(Oc2nc3ccc(Cl)cc3s2)cc1OC [NZ-392, 2-{4-[(6-chloro-1,3-benzothiazol-2-yl)oxy]-2-methoxyphenyl}-N-methylacetamide]
Human fibroblast
  concentrations at which not toxic, human fibroblast cytotoxicity: ≥ 100 µM
Mtb strain mc^2-7000; [2]
  MIC: 7.28 µM (≈ 2.64 µg/mL)
Mtb AccD6; read-out: IC50
  IC50: 7180 nM
S. cerevisiae
  concentrations at which not toxic, s. cerevisiae cytotoxicity: ≥ 100 µM

## CNC(=O)C(C)c1ccc(Oc2nc3cc(Cl)c(Cl)cc3s2)cc1 (stereo not shown) [NZ-394, 2-{4-[(5,6-dichloro-1,3-benzothiazol-2-yl)oxy]phenyl}-N-methylpropanamide]
Human fibroblast
  concentrations at which not toxic, human fibroblast cytotoxicity: ≥ 100 µM
Mtb strain mc^2-7000
  MIC: Not active
Mtb AccD6; read-out: IC50
  IC50: 980 nM
S. cerevisiae
  concentrations at which not toxic, s. cerevisiae cytotoxicity: ≥ 100 µM

## CNC(=O)Cc1ccc(Oc2nc3ccc(F)cc3s2)cc1O [NZ-395, 2-{4-[(6-fluoro-1,3-benzothiazol-2-yl)oxy]-2-hydroxyphenyl}-N-methylacetamide]
Human fibroblast
  concentrations at which not toxic, human fibroblast cytotoxicity: ≥ 100 µM
Mtb strain mc^2-7000; [2]
  MIC: 0.6 to 0.9 µM (≈ 0.199 to 0.299 µg/mL)
Mtb AccD6; read-out: IC50
  IC50: 160 nM
S. cerevisiae
  concentrations at which not toxic, s. cerevisiae cytotoxicity: ≥ 100 µM

## COC(=O)Cn1ccc(Oc2nc3ccc(Cl)cc3s2)cc1=O [NZ-396, methyl 2-{4-[(6-chloro-1,3-benzothiazol-2-yl)oxy]-2-oxo-1,2-dihydropyridin-1-yl}acetate]
Human fibroblast
  concentrations at which not toxic, human fibroblast cytotoxicity: ≥ 100 µM
Mtb strain mc^2-7000; [2]
  MIC: 6.19 to 8.6 µM
Mtb AccD6; read-out: IC50
  IC50: 11300 nM
S. cerevisiae
  concentrations at which not toxic, s. cerevisiae cytotoxicity: ≥ 100 µM

## O=C(O)Cn1ccc(Oc2nc3ccc(Cl)cc3s2)cc1=O [NZ-397, 2-{4-[(6-chloro-1,3-benzothiazol-2-yl)oxy]-2-oxo-1,2-dihydropyridin-1-yl}acetic acid]
Human fibroblast
  concentrations at which not toxic, human fibroblast cytotoxicity: ≥ 100 µM
Mtb strain mc^2-7000
  MIC: Not Active
Mtb AccD6; read-out: IC50
  IC50: 450 nM
S. cerevisiae
  concentrations at which not toxic, s. cerevisiae cytotoxicity: ≥ 100 µM

## COC(=O)Cc1ccc(Oc2nc3cc(F)c(F)cc3s2)cc1 [NZ-398, methyl 2-{4-[(5,6-difluoro-1,3-benzothiazol-2-yl)oxy]phenyl}acetate]
Human fibroblast
  concentrations at which not toxic, human fibroblast cytotoxicity: ≥ 100 µM
Mtb strain mc^2-7000; [2]
  MIC: 0.89 µM
Mtb AccD6; read-out: IC50
  IC50: 3600 nM
S. cerevisiae
  concentrations at which not toxic, s. cerevisiae cytotoxicity: ≥ 100 µM

## O=C(O)Cc1ccc(Oc2nc3cc(F)c(F)cc3s2)cc1 [NZ-399, 2-{4-[(5,6-difluoro-1,3-benzothiazol-2-yl)oxy]phenyl}acetic acid]
Human fibroblast
  concentrations at which not toxic, human fibroblast cytotoxicity: ≥ 100 µM
Mtb strain mc^2-7000; [2]
  MIC: 1.36 µM (≈ 0.437 µg/mL)
Mtb AccD6; read-out: IC50
  IC50: 180 nM
S. cerevisiae
  concentrations at which not toxic, s. cerevisiae cytotoxicity: ≥ 100 µM

## CNC(=O)Cc1ccc(Oc2nc3cc(F)c(F)cc3s2)cc1 [NZ-400, 2-{4-[(5,6-difluoro-1,3-benzothiazol-2-yl)oxy]phenyl}-N-methylacetamide]
Human fibroblast
  concentrations at which not toxic, human fibroblast cytotoxicity: ≥ 100 µM
Mtb strain mc^2-7000; [2]
  MIC: 0.61 µM (≈ 0.204 µg/mL)
Mtb AccD6; read-out: IC50
  IC50: 210 nM
S. cerevisiae
  concentrations at which not toxic, s. cerevisiae cytotoxicity: ≥ 100 µM

## CNC(=O)Cc1ccc(Oc2nc3cc(F)c(F)cc3s2)cc1O [NZ-401, 2-{4-[(5,6-difluoro-1,3-benzothiazol-2-yl)oxy]-2-hydroxyphenyl}-N-methylacetamide]
Human fibroblast
  concentrations at which not toxic, human fibroblast cytotoxicity: ≥ 100 µM
Mtb strain mc^2-7000; [2]
  MIC: 0.54 µM (≈ 0.189 µg/mL)
Mtb AccD6; read-out: IC50
  IC50: 120 nM
S. cerevisiae
  concentrations at which not toxic, s. cerevisiae cytotoxicity: ≥ 100 µM

## CNC(=O)Cc1ccc(Oc2cnc3cc(Cl)ccc3n2)cc1O [NZ-402, 2-{4-[(6-chloroquinoxalin-2-yl)oxy]-2-hydroxyphenyl}-N-methylacetamide]
Human fibroblast
  concentrations at which not toxic, human fibroblast cytotoxicity: ≥ 100 µM
Mtb strain mc^2-7000; [2]
  MIC: 2.16 µM (≈ 0.743 µg/mL)
Mtb AccD6; read-out: IC50
  IC50: 210 nM
S. cerevisiae
  concentrations at which not toxic, s. cerevisiae cytotoxicity: ≥ 100 µM

From patent US10300071B2, “Compositions and methods for inhibition of mycobacteria” (priority 2014, dated 2019)
